Values after ≈ are worked out from the molar mass of the structure shown.
Experiments:
KM mice = experiment: Acute toxicity in mice; type: in vivo
[1] = Pharmacokinetics analysis of 3r in CD-1 mice; type: in vivo; settings: 5 mg/kg
[2] = Stability in the mouse liver microsome; settings: for microsomal CLint at 0.5 μM: CD-1, mouse, liver microsomes, pH 7.4; for Clapp / Clh / Eh / k: CD-1 mouse liver microsomes
[3] = test system: PEPCK mRNA expression in HepG2 cell; experiment: Cell-based assay for inhibition on the mRNA expression of PEPCK
[4] = Solubility in simulated gastric/intestinal fluids; type: physicochemical; settings: simulated intestinal fluid, pH 6.8
[5] = test system: G-6-Pase mRNA expression in HepG2 cell; experiment: Cell-based assay for inhibition on the mRNA expression of G-6-Pase
[6] = Pharmacokinetics analysis of 8r in SD rats; type: in vivo; settings: 5 mg/kg; for T1/2: SD rats
PDE9A2 (181–506) [7] = target: T1, PDE9A2 (181–506) (Homo sapiens, UniProt O76083); experiment: PDE enzymatic assay, PDE9A2 catalytic domain; type: biochemical
T1 sequence (O76083 241-566): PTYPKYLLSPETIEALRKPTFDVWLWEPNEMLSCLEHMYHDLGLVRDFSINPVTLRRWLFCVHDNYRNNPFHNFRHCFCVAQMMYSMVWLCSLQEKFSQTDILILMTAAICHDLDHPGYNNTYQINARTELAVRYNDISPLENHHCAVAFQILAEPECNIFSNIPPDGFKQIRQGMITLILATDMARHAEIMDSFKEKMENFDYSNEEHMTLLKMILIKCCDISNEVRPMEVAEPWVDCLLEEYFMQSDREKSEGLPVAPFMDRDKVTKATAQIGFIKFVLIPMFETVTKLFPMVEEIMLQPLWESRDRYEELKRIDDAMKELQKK

Pharmacokinetics of 28s = type: in vivo; settings: blood, po, 5 mg/kg
PDE9A2 (181–506) [8] = target: T1, PDE9A2 (181–506); settings: read-out: IC50 ± SD, PDE9A2 (181–506); 28s from previous report; cited from earlier work
[9] = HepG2 cell-based assay, general statement
[10] = HepG2 cell, cAMP/dexamethasone stimulation, 300 nM, in words

Which dose well tolerated (KM mice; single oral dose) does the source give for COc1ccc(NC(=O)[C@@H](C)Nc2nc3c(cnn3C3CCCC3)c(=O)[nH]2)cc1 [Compound 3r, (R)-2-((1-Cyclopentyl-4-hydroxy-1H-pyrazolo[3,4-d]pyrimidin-6-yl)amino)-N-(4-methoxyphenyl)propanamide] here?
The dose well tolerated was at most 1200 mg/kg.

And the acute toxicity (KM mice; single oral dose up to 1200 mg/kg)?
Its acute toxicity is “no acute toxicity”.

What about the “abnormal behaviors, water/food consumption and body weight” value (KM mice; single oral doses 600 or 1200 mg/kg, 2 weeks) of the same molecule?
Its value is “no abnormal behaviors and significant changes of water/food consumption and body weight were observed”.

And the T1/2 ([1]; iv, CD-1 mice)?
The T1/2 was 5.34 ± 1.43 h.

What about the MRT inf ([1]; male, CD-1, mouse, blood, iv) of the same molecule?
Its MRT inf is 1.08 ± 0.08 h.

What about the Vd ([1]; male, CD-1, mouse, blood, iv) of the same molecule?
The Vd was 1.53 ± 0.15 L/kg.

And the clearance ([1]; male, CD-1, mouse, blood, iv)?
Its clearance is 23.8 mL/min/kg.

What about the C0 ([1]; male, CD-1, mouse, blood, iv, C0, iv, CD-1 mice) of the same molecule?
The C0 was 24500 ± 7520 ng/mL.

What about the Cmax ([1]; male, CD-1, mouse, blood, po) of the same molecule?
The Cmax was 217 ng/mL.

And the MRT inf ([1]; male, CD-1, mouse, blood, po)?
The MRT inf was 2.65 ± 0.82 h.

And the Tmax ([1]; male, CD-1, mouse, blood, po)?
The Tmax was 0.58 ± 0.38 h.

What about the bioavailability ([1]; male, CD-1, mouse, blood, po) of the same molecule?
Its bioavailability is 9.8 ± 3.1%.

And the CL ([1]; po, CD-1 mice)?
Its CL is 14.6 ± 3.5 L h^–1 kg^–1.

What about the T1/2 ([1]; po, CD-1 mice) of the same molecule?
Its T1/2 is 1.67 ± 0.04 h.

And the Vss ([1]; po, CD-1 mice)?
Its Vss is 35.0 ± 7.9 L/kg.

What about the microsomal CLint at 0.5 μM [2] of the same molecule?
Its microsomal CLint at 0.5 μM is 62 µL/min/mg.

And the Clapp [2]?
Its Clapp is 244.3 mL min^–1 kg^–1.

And the Clh [2]?
Its Clh is 65.8 mL min^–1 kg^–1.

And the Eh [2]?
Its Eh is 73.1%.

What about the k [2] of the same molecule?
The k was 0.03102.

And the “mRNA expression of phosphoenolpyruvate carboxykinase” value [3, 9]?
Its value is “inhibits the mRNA expression”.

What about the “8-Br-cAMP/dexamethasone-induced expression of PEPCK” value ([3]; HepG2 cells, 10 nM, in words) of the same molecule?
The value was “back to the basal level”.

What about the solubility [4] of the same molecule?
The solubility was 31 ± 4 µg/mL (≈ 78.2 µM).

And the “mRNA expression of glucose 6-phosphatase” value [5, 9]?
The value was “inhibits the mRNA expression”.

What about the “8-Br-cAMP/dexamethasone-induced expression of G-6-Pase” value ([5]; HepG2 cells, 10 nM, in words) of the same molecule?
The value was “back to the basal level”.

With C[C@@H](Nc1nc2c(cnn2C2CCCC2)c(=O)[nH]1)C(=O)Nc1ccc(F)cc1 [Compound 8r, (R)-2-((1-Cyclopentyl-4-oxo-4,5-dihydro-1H-pyrazolo[3,4-d]pyrimidin-6-yl)amino)-N-(4-fluorophenyl)propanamide] as the molecule, how does the T1/2 ([6]; iv) read?
Its T1/2 is 1.01 ± 0.09 h.

What about the C0 ([6]; male, SD, rat, blood, iv) of the same molecule?
The C0 was 19100 ± 428 ng/mL.

And the MRT inf ([6]; male, SD, rat, blood, iv)?
Its MRT inf is 0.59 ± 0.13 h.

And the Vd ([6]; male, SD, rat, blood, iv)?
Its Vd is 2.58 ± 0.07 L/kg.

And the clearance ([6]; male, SD, rat, blood, iv)?
Its clearance is 29.7 mL/min/kg.

What about the Cmax ([6]; male, SD, rat, blood, po) of the same molecule?
Its Cmax is 135 ± 55 ng/mL.

What about the MRT inf ([6]; male, SD, rat, blood, po) of the same molecule?
Its MRT inf is 3.94 ± 1.11 h.

What about the Tmax ([6]; male, SD, rat, blood, po) of the same molecule?
Its Tmax is 1 ± 0.87 h.

And the bioavailability ([6]; male, SD, rat, blood, po)?
Its bioavailability is 18 ± 7%.

And the T1/2 ([6]; po)?
Its T1/2 is 4.08 ± 1.00 h.

With COc1ccc(NC(=O)[C@@H](C)Nc2nc3c(cnn3-c3ccccc3Cl)c(=O)[nH]2)cc1 [Compound 28r, (R)-2-((1-(2-Chlorophenyl)-4-hydroxy-1H-pyrazolo[3,4-d]pyrimidin-6-yl)amino)-N-(4-methoxyphenyl)propanamide] as the molecule, how does the Ki (PDE9A2 (181–506) [7]) read?
Its Ki is 5 nM.

For COc1ccc(NC(=O)[C@H](C)Nc2nc3c(cnn3-c3ccccc3Cl)c(=O)[nH]2)cc1 [Compound 28s], which Cmax (Pharmacokinetics of 28s) is on record?
The Cmax was 16 ng/mL.

What about the Ki (PDE9A2 (181–506) [7]) of the same molecule?
The Ki was 16 nM.

What about the IC50 (PDE9A2 (181–506) [8]) of the same molecule?
The IC50 was 21 ± 5 nM.

With C[C@]12CC[C@H]3[C@@H](CCC4=CC(=O)CC[C@@]43C)[C@@H]1CC[C@@H]2O [testosterone] as the molecule, how does the microsomal CLint at 0.5 μM [2] read?
The microsomal CLint at 0.5 μM was 692 µL/min/mg.

And the Clapp [2]?
The Clapp was 2725.1 mL min^–1 kg^–1.

And the Clh [2]?
Its Clh is 87.1 mL min^–1 kg^–1.

And the Eh [2]?
Its Eh is 96.8%.

What about the k [2] of the same molecule?
Its k is 0.346.

For CC(=O)CC(c1ccccc1)c1c(O)c2ccccc2oc1=O (stereo not drawn) [warfarin], which Clapp [2] is on record?
Its Clapp is 30.9 mL min^–1 kg^–1.

And the Clh [2]?
The Clh was 23.0 mL min^–1 kg^–1.

With insulin as the molecule, how does the “mRNA expression of PEPCK” value [3, 10] read?
The value was “to the basal level”.

What about the “mRNA expression of G-6-Pase” value [5, 10] of the same molecule?
Its value is “to the basal level”.

— article PMC4281101 (Journal of Medicinal Chemistry, 2014)
